What was measured:
[1] = molecular target: T1, Angiotensin-converting enzyme (Oryctolagus cuniculus, UniProt P12822); test: biochemical; assay type: tissue-based, Lung;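 further: enzymatic inhibition of angiotensin-converting enzyme measured with FAPGG as the substrate; in other assays of this panel Not Active means under 50% inhibition at 10 µM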
T1 sequence (P12822 whole entry): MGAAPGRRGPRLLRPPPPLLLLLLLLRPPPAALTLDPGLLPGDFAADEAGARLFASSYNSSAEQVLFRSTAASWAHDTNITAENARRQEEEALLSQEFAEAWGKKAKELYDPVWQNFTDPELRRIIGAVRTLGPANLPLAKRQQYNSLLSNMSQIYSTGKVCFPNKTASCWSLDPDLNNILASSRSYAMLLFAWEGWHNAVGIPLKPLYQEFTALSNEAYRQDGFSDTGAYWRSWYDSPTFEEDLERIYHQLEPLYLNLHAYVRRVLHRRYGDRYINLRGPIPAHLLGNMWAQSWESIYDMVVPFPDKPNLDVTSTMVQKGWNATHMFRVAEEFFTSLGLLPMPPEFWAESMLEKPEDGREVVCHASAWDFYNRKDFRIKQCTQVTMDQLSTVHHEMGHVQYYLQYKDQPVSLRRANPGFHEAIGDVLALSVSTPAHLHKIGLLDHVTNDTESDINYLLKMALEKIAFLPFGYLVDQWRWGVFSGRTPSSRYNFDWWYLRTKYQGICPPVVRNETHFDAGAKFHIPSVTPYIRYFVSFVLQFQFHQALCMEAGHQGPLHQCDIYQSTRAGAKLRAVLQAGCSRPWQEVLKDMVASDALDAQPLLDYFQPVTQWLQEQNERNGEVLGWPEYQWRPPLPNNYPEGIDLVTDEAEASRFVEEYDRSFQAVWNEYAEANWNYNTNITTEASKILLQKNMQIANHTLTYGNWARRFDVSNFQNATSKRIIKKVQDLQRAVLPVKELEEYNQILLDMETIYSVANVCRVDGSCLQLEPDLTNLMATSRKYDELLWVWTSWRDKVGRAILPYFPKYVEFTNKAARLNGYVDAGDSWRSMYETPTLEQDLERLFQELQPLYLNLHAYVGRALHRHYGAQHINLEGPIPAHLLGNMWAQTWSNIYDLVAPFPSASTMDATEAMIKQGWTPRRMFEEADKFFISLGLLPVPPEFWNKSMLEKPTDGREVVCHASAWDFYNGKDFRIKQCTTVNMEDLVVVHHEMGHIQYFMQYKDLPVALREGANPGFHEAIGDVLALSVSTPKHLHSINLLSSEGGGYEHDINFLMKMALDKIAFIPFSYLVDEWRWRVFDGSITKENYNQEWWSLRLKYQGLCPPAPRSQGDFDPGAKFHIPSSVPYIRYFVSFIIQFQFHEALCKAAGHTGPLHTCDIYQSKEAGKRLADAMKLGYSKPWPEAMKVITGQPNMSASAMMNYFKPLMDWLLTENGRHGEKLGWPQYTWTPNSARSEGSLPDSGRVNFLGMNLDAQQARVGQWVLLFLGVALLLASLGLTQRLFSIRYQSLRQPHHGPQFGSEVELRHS

[2] = DRUGMATRIX: GABAA, Muscimol, Central radioligand binding (ligand: [3H] Muscimol); assay type: cell membranes, Rattus norvegicus, Wistar, Brain, Membrane; settings: Not Active = under 50% inhibition at 10 µM
[3] = molecular target: C-C chemokine receptor type 2 (Homo sapiens, UniProt P41597); assay type: cell membranes, CHO-K1, Membrane; settings: cho-k1; further: in other assays of this panel Not Active means under 50% inhibition at 10 µM
Sequence of C-C chemokine receptor type 2 (P41597 whole entry): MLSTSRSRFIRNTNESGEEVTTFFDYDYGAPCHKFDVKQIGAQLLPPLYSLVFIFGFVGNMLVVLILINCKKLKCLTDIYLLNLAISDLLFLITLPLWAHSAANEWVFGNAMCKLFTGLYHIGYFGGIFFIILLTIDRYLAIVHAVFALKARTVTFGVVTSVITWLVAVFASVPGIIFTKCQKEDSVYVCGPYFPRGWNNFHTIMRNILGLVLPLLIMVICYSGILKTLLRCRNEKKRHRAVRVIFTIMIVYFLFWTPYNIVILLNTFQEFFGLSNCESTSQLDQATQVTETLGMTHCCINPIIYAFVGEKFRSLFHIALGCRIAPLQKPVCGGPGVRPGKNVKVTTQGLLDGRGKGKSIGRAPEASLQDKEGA

[4] = molecular target: T2, Neutrophil elastase (Homo sapiens, UniProt P08246); assay type: tissue-based;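 further: inhibition of neutrophil elastase enzyme activity, measured with a p-nitroanilide-linked peptide substrate; in other assays of this panel Not Active means under 50% inhibition at 10 µM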
T2 sequence (P08246 whole entry): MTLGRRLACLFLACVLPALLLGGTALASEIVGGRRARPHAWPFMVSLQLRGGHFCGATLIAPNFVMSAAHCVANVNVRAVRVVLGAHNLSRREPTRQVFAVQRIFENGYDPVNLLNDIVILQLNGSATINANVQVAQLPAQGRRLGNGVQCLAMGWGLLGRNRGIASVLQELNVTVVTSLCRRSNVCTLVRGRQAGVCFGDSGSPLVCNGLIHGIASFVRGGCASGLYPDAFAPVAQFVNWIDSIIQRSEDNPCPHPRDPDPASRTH

[5] = molecular target: T3, Neuropeptide Y receptor type 1 (Homo sapiens, UniProt P25929); assay type: cell membranes, Membrane; settings: sk-n-mc; further: in other assays of this panel Not Active means under 50% inhibition at 10 µM
T3 sequence (P25929 whole entry): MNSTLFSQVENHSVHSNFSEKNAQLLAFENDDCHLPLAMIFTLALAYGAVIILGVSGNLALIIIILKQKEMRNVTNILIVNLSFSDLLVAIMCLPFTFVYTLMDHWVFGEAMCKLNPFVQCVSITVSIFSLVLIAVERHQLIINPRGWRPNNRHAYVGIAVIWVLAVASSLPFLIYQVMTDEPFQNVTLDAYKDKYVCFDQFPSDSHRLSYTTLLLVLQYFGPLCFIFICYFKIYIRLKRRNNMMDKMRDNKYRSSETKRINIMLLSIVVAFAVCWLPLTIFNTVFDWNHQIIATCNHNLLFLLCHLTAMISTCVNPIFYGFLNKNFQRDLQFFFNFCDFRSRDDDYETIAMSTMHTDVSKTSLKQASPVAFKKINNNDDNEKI

[6] = molecular target: T4, 3-hydroxy-3-methylglutaryl-coenzyme A reductase (Homo sapiens, UniProt P04035); design: species or system Escherichia coli
T4 sequence (P04035 whole entry): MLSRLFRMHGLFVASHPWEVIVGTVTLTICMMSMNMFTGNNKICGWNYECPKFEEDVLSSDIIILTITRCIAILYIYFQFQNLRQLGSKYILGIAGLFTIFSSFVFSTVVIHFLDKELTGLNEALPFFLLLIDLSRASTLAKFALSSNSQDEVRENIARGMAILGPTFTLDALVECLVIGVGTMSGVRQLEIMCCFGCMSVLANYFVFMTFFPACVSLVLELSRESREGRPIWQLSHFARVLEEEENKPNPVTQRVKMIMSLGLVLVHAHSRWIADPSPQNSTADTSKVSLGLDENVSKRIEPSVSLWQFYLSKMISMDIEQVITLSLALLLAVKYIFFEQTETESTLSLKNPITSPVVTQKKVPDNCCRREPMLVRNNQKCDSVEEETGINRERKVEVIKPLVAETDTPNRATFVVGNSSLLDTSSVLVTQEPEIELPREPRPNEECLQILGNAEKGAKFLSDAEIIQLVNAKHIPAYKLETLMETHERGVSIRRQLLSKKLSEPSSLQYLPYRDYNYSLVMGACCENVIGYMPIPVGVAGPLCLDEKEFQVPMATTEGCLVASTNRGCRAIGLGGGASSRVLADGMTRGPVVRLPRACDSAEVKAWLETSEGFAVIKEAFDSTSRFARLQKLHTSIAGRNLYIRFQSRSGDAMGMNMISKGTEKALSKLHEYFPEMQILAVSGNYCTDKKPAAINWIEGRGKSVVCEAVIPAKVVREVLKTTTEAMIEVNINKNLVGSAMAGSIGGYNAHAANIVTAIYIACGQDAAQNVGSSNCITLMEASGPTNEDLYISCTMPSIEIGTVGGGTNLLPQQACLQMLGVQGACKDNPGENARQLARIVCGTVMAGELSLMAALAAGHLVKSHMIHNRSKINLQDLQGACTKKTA

LEAD(IV) ACETATE
Not Active: IC50 [1] | Ki [1] | IC50 [2] | Ki [2] | IC50 [3] | Ki [3] | IC50 [4] | Ki [4] | IC50 [5] | Ki [5] | IC50 [6] | Ki [6]

CC#C[C@]1(O)CC[C@H]2[C@@H]3CCC4=CC(=O)CCC4=C3[C@@H](c3ccc(N(C)C)cc3)C[C@@]21C [MIFEPRISTONE]
Not Active: IC50 [1] | IC50 [2] | Ki [2] | IC50 [3] | IC50 [4] | IC50 [5] | IC50 [6]

CS(=O)(=O)c1ccc(C2=C(c3ccccc3)C(=O)OC2)cc1 [ROFECOXIB]
Not Active: IC50 [1] | IC50 [2] | Ki [2] | IC50 [3] | IC50 [4] | IC50 [5] | IC50 [6]

COC(=O)Nc1nc2ccc(C(=O)c3ccccc3)cc2[nH]1 [MEBENDAZOLE]
Not Active: IC50 [1] | IC50 [2] | Ki [2] | IC50 [3] | IC50 [4] | IC50 [5] | IC50 [6]

CC(O)C(=O)O (stereo not drawn) [LACTIC ACID]
Not Active: IC50 [1] | IC50 [2] | Ki [2] | IC50 [3] | IC50 [4] | IC50 [5] | IC50 [6]

CC(N)C12CC3CC(CC(C3)C1)C2 (stereo not drawn) [RIMANTADINE]
Not Active: IC50 [1] | IC50 [2] | Ki [2] | IC50 [3] | IC50 [4] | IC50 [5] | IC50 [6]

CN1C[C@H](CNC(=O)OCc2ccccc2)C[C@@H]2c3cccc4c3c(cn4C)C[C@H]21 [METERGOLINE]
Not Active: IC50 [1] | IC50 [2] | Ki [2] | IC50 [3] | IC50 [4] | IC50 [5] | IC50 [6]

CO[C@@H]1[C@@H](OC)[C@H](C)[C@@](O)(CC(=O)O)O[C@H]1[C@H](C)[C@H]1O[C@@]2(CC[C@@](C)([C@H]3CC[C@@](C)([C@@H]4O[C@@H]([C@H]5O[C@](C)(O)[C@H](C)C[C@@H]5C)C[C@@H]4O[C@@H]4C[C@H](OC)[C@@H](OC)[C@H](C)O4)O3)O2)C[C@H](O)[C@H]1C.N [MADURAMICIN]
Not Active: IC50 [1] | IC50 [2] | Ki [2] | IC50 [3] | IC50 [4] | IC50 [5] | IC50 [6]

CCOC(=O)C1=C(C)NC(C)=C(C(=O)OCC)C1c1ccccc1/C=C/C(=O)OC(C)(C)C [LACIDIPINE]
Not Active: IC50 [1] | IC50 [2] | Ki [2] | IC50 [3] | IC50 [4] | IC50 [5] | IC50 [6]

CC(C)(C)NC[C@H](O)COc1cccc2c1CCCC2=O [LEVOBUNOLOL]
Not Active: IC50 [1] | IC50 [2] | Ki [2] | IC50 [3] | IC50 [4] | IC50 [5] | IC50 [6]

Cc1[nH]c(=O)c(C#N)cc1-c1ccncc1 [MILRINONE]
Not Active: IC50 [1] | IC50 [2] | Ki [2] | IC50 [3] | IC50 [4] | IC50 [5] | IC50 [6]

C1CCN2C[C@@H]3C[C@@H](CN4CCCC[C@@H]34)[C@H]2C1 [SPARTEINE]
Not Active: IC50 [1] | IC50 [2] | Ki [2] | IC50 [3] | IC50 [4] | IC50 [5] | IC50 [6]

Cc1cnc(NC(=O)C2=C(O)c3ccccc3S(=O)(=O)N2C)s1 [MELOXICAM]
Not Active: IC50 [1] | IC50 [2] | Ki [2] | IC50 [3] | IC50 [4] | IC50 [5] | IC50 [6]

CO[C@@]12[C@H](COC(N)=O)C3=C(C(=O)C(C)=C(N)C3=O)N1C[C@@H]1N[C@@H]12 [MITOMYCIN]
Not Active: IC50 [1] | IC50 [2] | Ki [2] | IC50 [3] | IC50 [4] | IC50 [5] | IC50 [6]

CC(Cl)(Cl)Cl [TRICHLOROETHANE]
Not Active: IC50 [1] | IC50 [2] | Ki [2] | IC50 [3] | IC50 [4] | IC50 [5] | IC50 [6]

O=[As][O-].[Na+] [SODIUM ARSENITE]
Not Active: IC50 [1] | IC50 [2] | Ki [2] | IC50 [3] | IC50 [4] | IC50 [5] | IC50 [6]

Cc1ccc(Cl)c(Nc2ccccc2C(=O)O)c1Cl [MECLOFENAMIC ACID]
Not Active: IC50 [1] | IC50 [2] | Ki [2] | IC50 [3] | IC50 [4] | IC50 [5] | IC50 [6]

Cc1ccc(S(=O)(=O)NC(=O)NN2CCCCCC2)cc1 [TOLAZAMIDE]
Not Active: IC50 [1] | IC50 [2] | Ki [2] | IC50 [3] | IC50 [4] | IC50 [5] | IC50 [6]

O=C(O)c1cc(/N=N/c2ccc(S(=O)(=O)Nc3ccccn3)cc2)ccc1O [SULFASALAZINE]
Not Active: IC50 [1] | IC50 [2] | Ki [2] | IC50 [3] | IC50 [4] | IC50 [5] | IC50 [6]

Reference: ChEMBL document CHEMBL1909046, “DrugMatrix in vitro pharmacology data”
